Active and inactive are the calls of the source. No cut-off for these calls is given here.
Assays:
[1] = Drug uptake in mouse NIH/3T3 cells at 5 uM and 4 degree C after 16 hrs by FACS analysis relative to 37 degree C; format: ADME, cell-based; conditions: nih3t3, 16 h
Quadruplex DNA [2] = assay: Binding affinity to human KRAS utr-z RNA g-quadruplex by fluorescence spectroscopy; format: nucleic-acid assay
Quadruplex DNA [3] = assay: Binding affinity to human KRAS utr-z RNA g-quadruplex assessed as emission spectra at absorbance 650 to 715 nm 1 uM by fluorescence titration method; format: nucleic-acid assay
[4] = Binding affinity to NRAS RNA g-quadruplex (unknown origin) at 40 degree C by SPR analysis; format: nucleic-acid assay
[5] = Drug uptake in human PANC1 cells at 5 uM after 2 hrs by FACS analysis; format: ADME, cell-based; conditions: panc-1, 2 h
[6] = Drug localization in cytoplasm of human PANC1 cells at 5 uM after 6 hrs by Hoechst staining based confocal microscopy; format: ADME, subcellular; conditions: panc-1, 6 h
[7] = Drug uptake in human PANC1 cells in presence of dynamin-inhibitor dynasore; format: ADME, cell-based; conditions: panc-1
[8] = Drug uptake in human PANC1 cells at 5 uM and 4 degree C after 16 hrs by FACS analysis relative to 37 degree C; format: ADME, cell-based; conditions: panc-1, 16 h
PANC-1 [9] = assay: Induction of ROS generation in human PANC1 cells assessed as cleavage of CM-H2DCFDA to CM-H2DCF by intracellular esterase by measuring green fluorescence emission incubated for 16 hrs followed by 7.2J/cm2 photoirradiation and subsequent compound washout measured after 40 mins by CM-H2DCFDA staining-based FACSCalibur flow cytometry; format: functional, cell-based
Quadruplex DNA [10] = assay: Induction of ROS-mediated […] labeled Ras RNA g-quadruplex (unknown origin) degradation assessed as residual RNA g-quadruplex at 0.6 uM incubated for 15 to 30 mins followed by photoirradiation for 30 mins by PAGE analysis relative to control; format: nucleic-acid assay
[11] = Induction of ROS-mediated Cys5.5 labelled utr-c RNA duplex (unknown origin) degradation at 0.6 uM incubated for 30 mins followed by photoirradiation for 15 to 30 mins by PAGE analysis
[12] = Induction of ROS-mediated […] labelled 20-mer utr-c stem-loop RNA (unknown origin) degradation at 0.6 uM incubated for 30 mins followed by photoirradiation for 15 to 30 mins by PAGE analysis
[13] = target: GTPase KRas (Homo sapiens) (UniProt P01116); assay: Inhibition of KRAS in human PANC1 cells assessed as decrease in KRAS mRNA level at 15 nM followed by 7.2 J/cm2 irradiation after 4 hrs by qRT-PCR analysis; format: cell-based
Chain of GTPase KRas (Homo sapiens) (P01116 whole entry, looked up): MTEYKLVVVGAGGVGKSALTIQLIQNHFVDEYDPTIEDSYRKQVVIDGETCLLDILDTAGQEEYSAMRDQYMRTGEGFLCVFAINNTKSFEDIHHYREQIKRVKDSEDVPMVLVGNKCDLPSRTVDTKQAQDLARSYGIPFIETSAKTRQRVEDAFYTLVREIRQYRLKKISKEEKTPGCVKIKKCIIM

HEK293 = assay: Cytotoxicity against human HEK293 cells assessed as reduction in metabolic activity after 24 to 72 hrs in dark followed by photoirradiation in presence of NADH by resazurin assay; format: ADME, cell-based
PANC-1 [14] = assay: Cytotoxicity against human PANC1 cells assessed as reduction in metabolic activity at 20 nM after 24 to 72 hrs in dark followed by photoirradiation in presence of NADH and NAC by resazurin assay; format: functional, cell-based
PANC-1 [15] = assay: Photodynamic antitumor activity against human PANC1 cells xenografted in SCID mouse assessed as reduction in tumor growth at 3 mg/kg administered intratumorally after 2 hrs photoirradiated by diode laser at 193 J/cm2 by micrometer caliper method; format: functional, organism-based
PANC-1 [16] = assay: Induction of apoptosis in human PANC1 cells assessed as early apoptotic cells at 5 nM and photoirradiated at 7.2 J/cm2 measured after 6 to 24 hrs by annexin-V-propidium iodide staining based FACScalibur flow cytometry analysis (reference value: 4.6 %); format: functional
PANC-1 [17] = assay: Induction of apoptosis in human PANC1 cells assessed as late apoptotic cells at 5 nM and photoirradiated at 7.2 J/cm2 measured after 6 to 24 hrs by annexin-V-propidium iodide staining based FACScalibur flow cytometry analysis (reference value: 2.7 %); format: functional
PANC-1 [18] = assay: Induction of apoptosis in human PANC1 cells assessed as early apoptotic cells at 10 nM and photoirradiated at 7.2 J/cm2 measured after 6 to 24 hrs by annexin-V-propidium iodide staining based FACScalibur flow cytometry analysis (reference value: 4.6 %); format: functional
PANC-1 [19] = assay: Induction of apoptosis in human PANC1 cells assessed as viable cells at 15 nM and photoirradiated at 7.2 J/cm2 measured after 6 to 24 hrs by annexin-V-propidium iodide staining based FACScalibur flow cytometry analysis (reference value: 91.9 %); format: functional; conditions: PANC-1, light or radiation study, read-out: Activity
PANC-1 [20] = assay: Induction of apoptosis in human PANC1 cells assessed as late apoptotic cells at 15 nM and photoirradiated at 7.2 J/cm2 measured after 6 to 24 hrs by annexin-V-propidium iodide staining based FACScalibur flow cytometry analysis (reference value: 2.7 %); format: functional
PANC-1 [21] = assay: Induction of apoptosis in human PANC1 cells assessed as necrotic cells at 15 nM and photoirradiated at 7.2 J/cm2 measured after 6 to 24 hrs by annexin-V-propidium iodide staining based FACScalibur flow cytometry analysis (reference value: 0.7 %); format: functional
PANC-1 [22] = assay: Induction of apoptosis in human PANC1 cells assessed as early apoptotic cells at 5 nM and photoirradiated at 7.2 J/cm2 measured after 6 to 24 hrs in presence of NAC by annexin-V-propidium iodide staining based FACScalibur flow cytometry analysis (reference value: 3.1 %); format: functional
PANC-1 [23] = assay: Induction of apoptosis in human PANC1 cells assessed as viable cells at 10 nM and photoirradiated at 7.2 J/cm2 measured after 6 to 24 hrs in presence of NAC by annexin-V-propidium iodide staining based FACScalibur flow cytometry analysis (reference value: 94.5 %); format: functional; conditions: PANC-1, light or radiation study, read-out: Activity
PANC-1 [24] = assay: Induction of apoptosis in human PANC1 cells assessed as early apoptotic cells at 10 nM and photoirradiated at 7.2 J/cm2 measured after 6 to 24 hrs in presence of NAC by annexin-V-propidium iodide staining based FACScalibur flow cytometry analysis (reference value: 3.1 %); format: functional
PANC-1 [25] = assay: Induction of apoptosis in human PANC1 cells assessed as viable cells at 15 nM and photoirradiated at 7.2 J/cm2 measured after 6 to 24 hrs in presence of NAC by annexin-V-propidium iodide staining based FACScalibur flow cytometry analysis (reference value: 94.5 %); format: functional; conditions: PANC-1, light or radiation study, read-out: Activity
PANC-1 [26] = assay: Induction of apoptosis in human PANC1 cells assessed as early apoptotic cells at 15 nM and photoirradiated at 7.2 J/cm2 measured after 6 to 24 hrs in presence of NAC by annexin-V-propidium iodide staining based FACScalibur flow cytometry analysis (reference value: 3.1 %); format: functional
PANC-1 [27] = assay: Induction of apoptosis in human PANC1 cells assessed as late apoptotic cells at 15 nM and photoirradiated at 7.2 J/cm2 measured after 6 to 24 hrs in presence of NAC by annexin-V-propidium iodide staining based FACScalibur flow cytometry analysis (reference value: 1.3 %); format: functional
PANC-1 [28] = assay: Induction of apoptosis in human PANC1 cells assessed as cleavage of PARP1 when photoirradiated at 7.2 J/cm2 by Western blot analysis; format: functional, cell-based
PANC-1 [29] = assay: Induction of apoptosis in human PANC1 cells assessed as cleavage of caspase 3 when photoirradiated at 7.2 J/cm2 by Western blot analysis; format: functional, cell-based

With `CCCCCCCCCCCCCC[n+]1ccc(-c2c3nc(c(-c4cc[n+](C)cc4)c4ccc([nH]4)c(-c4cc[n+](C)cc4)c4nc(c(-c5cc[n+](C)cc5)c5ccc2[nH]5)C=C4)C=C3)cc1.[I-].[I-].[I-].[I-]` the Drug uptake [1] was “Active”, the Kd (Quadruplex DNA [2]) was 219 nM and the Activity (Quadruplex DNA [3]) was “Active”. The Kd [4] was 56 to 98 nM, the Drug uptake [5] was “Active” and the Drug uptake [6] was “Active”. For the same molecule, the Drug uptake [7] was “Not Active”, the Drug uptake [8] was 24% and the Activity (PANC-1 [9]) was “Dose-dependent effect”. The Activity (Quadruplex DNA [10]) was 30%, the Activity [11] was “inactive” and the Activity [12] was “inactive”. For the same molecule, the inhibition [13] was “Active”, the Activity (HEK293) was “Non-Toxic” and the Activity (PANC-1 [14]) was “inactive”. The Activity (PANC-1 [15]) was “Active”, the Activity (PANC-1 [16]) was 5.1% and the Activity (PANC-1 [17]) was 6.1%. It also gave an Activity (PANC-1 [18]) of 4.8%, a viability at 0.015 µM (PANC-1 [19]) of 70.6% and an Activity (PANC-1 [20]) of 20.8%. It also gave an Activity (PANC-1 [21]) of 4.1%, an Activity (PANC-1 [22]) of 2.4% and a viability at 0.01 µM (PANC-1 [23]) of 90.9%. The Activity (PANC-1 [24]) was 3.7%, the viability at 0.015 µM (PANC-1 [25]) was 89.4% and the Activity (PANC-1 [26]) was 3.9%. For the same molecule, the Activity (PANC-1 [27]) was 5%, the Activity (PANC-1 [28]) was “Active” and the Activity (PANC-1 [29]) was “Active”.

Source: ChEMBL document CHEMBL4376882, “Photodynamic Therapy for ras-Driven Cancers: Targeting G-Quadruplex RNA Structures with Bifunctional Alkyl-Modified Porphyrins” (J Med Chem, 2020)
